{"source": "patent US20040009601A1", "about": "“Methods for the regeneration and transformation of cotton” (The Regents of the University of California, priority 2002, published 2004)", "tested_on": "Maxxa hypocotyl explants", "assay": "Callus induction from Maxxa hypocotyl explants, orthogonal array L9 factorial experiment", "format": "cell-based, Gossypium hirsutum L. cv. Maxxa", "details": "for Σ RG1: regeneration potential, mean Y of factor 1: factor 1 = 0 mg l-1 of the hormone; for Σ RG2: regeneration potential, mean Y of factor 2: factor 2 = 2,4-D 0.05, NAA 1.0, kinetin 0.5 mg l-1; for Σ RG3: regeneration potential, mean Y of factor 3: factor 3 = 2,4-D 0.1, NAA 2.0, kinetin 1.0 mg l-1; for Σ RG: mean of Σ RG1, Σ RG2 and Σ RG3: per hormone over the three factor levels", "method": "Hypocotyl explants ˜5 mm in length were excised from 7-10 day-old seedlings under sterile conditions. Explants were placed in a 25×100-mm petri dish (one seedling per plate) containing ˜30 ml of callus induction medium, sealed with parafilm and cultured at 28±2° C. under a combination of cool white and full spectrum fluorescent lights with a 16-hour light/8-hour dark cycle for 3 to 4 weeks to induce callus formation.\nInitial experiments were conducted using MS2NK (2 mg 1^−1 NAA substituted for 2,4-D in MS2DK, Trolinder and Goodin, 1987), a medium used for callus induction in the elite regenerable Coker 312 line. To optimize a callus induction medium for Maxxa, a factorial experiment using an Orthogonal Array L9 (3^4) experimental design ((Taguchi, Introduction to Quality Engineering, Tokyo, Japan (1986)) was performed to determine the best hormonal regime for induction of callus capable of undergoing somatic embryogenesis. The optimal combination of NAA, 2,4-D and kinetin was evaluated at varying concentrations (Table 1) in basal MS medium (Murashige and Skoog, Physiol. Plant. 15:473-497 (1962)) in four independent experiments. In each experiment, 18 hypocotyl explants were excised from 24-48 individual seedlings to provide two explants per seedling per treatment. Each replicated treatment was evaluated for the ability to proliferate a friable callus that was yellowish-green to creamy in color, granular in texture, and readily dispersed in liquid medium. Calli characteristics were scored at 3 weeks and 6 weeks for color, texture, dispersiveness in liquid media, and cell/callus size as the parameters for evaluation. Based on these criteria, the optimized Maxxa callus induction medium (MCIM) selected for cotton regeneration is comprised of MS salts (GibcoBRL Cat no. 11117-074) supplemented with 100 mg 1^−1 myo-inositol, B5 vitamins (10 mg 1^−1 thiamine-HCl; 1 mg 1^−1 nicotinic acid; 1 mg 1^−1 pyridoxine), 0.75 g 1^−1 MgCl2, 30 g 1^−1 glucose, 2.0 mg 1^−1 NAA and 0.05 mg 1^−1 2,4-D. The medium was adjusted to pH 5.8 before adding agar (2.5 g 1^−1 Phytagel).\nA factorial experiment using an orthogonal array L9 (3^4) design was conducted to determine optimal conditions for callus induction and somatic embryogenesis by Maxxa hypocotyl explants. Different hormonal combinations of auxin (NAA and/or 2,4-D) and cytokinin (kinetin) were tested at varying concentrations (Table 1) in basal MS medium (Murashige and Skoog, supra). Each of the 9 replicated treatments was scored for callus initiation efficiency (Y) based on two components—(I) the mean of the number of explants producing good quality callus and (II) embryogenic potential, that is, the developmental transition of undifferentiated callus to somatic embryogenesis—expressed as a percent (Table 1). The production and proliferation of callus considered of “good quality” was based on four criteria: color, texture, dispersiveness in liquid media, and size/shape of undifferentiated cells. Within each category, each callus was scored with a rating of 1 to 4 based on the following parameters: Color—dark green (4) to parrot-green/creamy (1), Texture—hard and compact (4) to soft and friable (1), Dispersiveness—intact (4) to readily dispersed cell clumps (1) in liquid medium, Size/Shape—small cells/compact callus (<1 mm) (4) to nodular, “grainy” callus (>2 mm) (1). Good quality callus received ratings of “1” in each category. The embryogenic potential (II) of Y represents the ability of undifferentiated parenchymal cells to organize into meristematic centers and successfully undergo somatic embryogenesis. The factors considered in determining II/Y included the formation of organized cell clusters in embryogenic cultures, the types of embryos produced (globular, heart-shaped, torpedo), and the color of the somatic embryo (white/transparent vs. yellow/opaque). […]", "data": [{"smiles": "O=C(O)COc1ccc(Cl)cc1Cl", "note": "[2,4-D, 2,4-dichlorophenoxyacetic acid]", "values": [{"measurement": "Importance of the hormone for callus induction from Maxxa hypocotyls, judged from Σ RG", "value": "essential for callus induction"}, {"measurement": "Σ RG1: regeneration potential, mean Y of factor 1", "value": 5.77, "unit": "%"}, {"measurement": "Σ RG2: regeneration potential, mean Y of factor 2", "value": 61.87, "unit": "%"}, {"measurement": "Σ RG3: regeneration potential, mean Y of factor 3", "value": 77.07, "unit": "%"}, {"measurement": "Σ RG: mean of Σ RG1, Σ RG2 and Σ RG3", "value": 71.30, "unit": "%"}]}, {"smiles": "c1coc(CNc2ncnc3[nH]cnc23)c1", "note": "[Kinetin, kinetin]", "values": [{"measurement": "Importance of the hormone for callus induction from Maxxa hypocotyls, judged from Σ RG", "value": "not critical"}, {"measurement": "Σ RG1: regeneration potential, mean Y of factor 1", "value": 63.27, "unit": "%"}, {"measurement": "Σ RG2: regeneration potential, mean Y of factor 2", "value": 32.78, "unit": "%"}, {"measurement": "Σ RG3: regeneration potential, mean Y of factor 3", "value": 46.65, "unit": "%"}, {"measurement": "Σ RG: mean of Σ RG1, Σ RG2 and Σ RG3", "value": 32.49, "unit": "%"}]}]}
